Key:
[1] = test system: Respiratory syncytial virus recombinant with luciferase (RSV-Luc5); assay: NHBE RSV-Luc5 384-well assay (EC50 RSVFLUC NHBE-384); format: cell-based; conditions: human respiratory syncytial virus, 72 h, read-out: EC50 RSV FLUC NHBE 384 V2 (per Ex. U)
From the text: Example U. NHBE RSV-Luc5 384-Well Assay (EC50 RSVFLUC NHBE-384)
Normal Human Bronchial Epithelial (NHBE) cells were purchased from Lonza (Walkersville, MD Cat #CC2540) and maintained in BEGM Bronchial Epithelial Cell Growth Medium BulletKit (Lonza CC-3170).
Cells were thawed, expanded, and were used for experiments at passage 2. Respiratory syncytial virus recombinant with luciferase (RSV-Luc5) (≥1×107 Infectious Units/ml (IU/ml) determined by TCID50) was purchased from Microbiologics (Saint Cloud, MN). Viral replication was determined in NHBE cells in the following manner.
Compounds are prepared in 100% DMSO in 384-well polypropylene plates (Greiner, Monroe, NC, Cat #784201) with 8 compounds per plate in grouped replicates of 4 at 10 serially diluted concentrations (1:3). The serially diluted compounds were transferred to low dead volume Echo plates (Labcyte, Sunnyvale, CA, Cat #LP-0200).
The test compounds were spotted to 384-well assay plates (Greiner, Monroe, NC, Cat #781091) at 200 nL per well. NHBE cells were harvested and suspended in BEGM Bronchial Epithelial Cell Growth Medium BulletKit and seeded to the pre-spotted assay plates at 5,000 cells per well in 30 μL. RSV-Luc5 virus was diluted in BEGM Bronchial Epithelial Cell Growth Medium BulletKit at 500,000 Infectious Units (IU) per mL and 10 μL per well was added to the assay plates containing cells and compounds, for an MOI of 1. The assay plates were incubated for 3 days at 37° C. and 5% CO2. At the end of incubation, One-Glo reagent (Promega, Madison, WI, Cat #E6120) was prepared. The assay plates and One-Glo reagent were equilibrated to room temperature for at least 15 minutes. 40 μL per well of One-Glo reagent was added and the plates were incubated at room temperature for 15 minutes before reading the luminescence signal on an En Vision multimode plate reader (Perkin Elmer, Waltham, MA). Remdesivir was used as positive control and DMSO was used as negative control. Values were normalized to the positive and negative controls (as 0% and 100% replication, respectively) and data was fitted using non-linear regression analysis by Gilead's dose response tool. The EC50 value for each compound was defined as the concentration reducing the viral replication by 50%.

[2] = test system: Human Rhinovirus 14 (HRV14); assay: H1-HeLa HRV-CTG EC50, HRV14; format: cell-based; conditions: Rhinovirus B, 96 h; H1-HeLa cells, HRV14, MOI 1.0, 4 days, Celltiter-Glo; read-out: EC50 H1-HeLa_HRV14_HRV-CTG 384-well Assay (per Ex Z)
From the text: Example Z: H1-HeLa HRV-CTG EC50
H1-Hela cell line (ATCC, Manassas, VA, Cat #CRL-1958) was maintained in Dulbecco's […] Essential Medium (DMEM) (Corning, New York, NY, Cat #15-018 CM) supplemented with 10% fetal bovine serum (FBS) (Hyclone, Logan, UT, Cat #SH30071-03), and 1× Penicillin-Streptomycin-L-Glutamine (Corning, New York, NY, Cat #30-009-CI). Cells were passaged 2 times per week to maintain sub-confluent densities and were used for experiments at passage 5-30. The Human Rhinovirus 1B (HRVIB) (ATCC, Manassas, VA, Cat #VR-1645), Human Rhinovirus 14 (HRV14) (ATCC, Manassas, VA, Cat #VR-284), and Human Rhinovirus 16 (HRV16) (ATCC, Manassas, VA, Cat #BR-283) was obtained through ATCC. Viral infection was monitored by determining viability of H1-HeLa cells as described below.
Test molecules are prepared in 100% DMSO in 384-well polypropylene plates (Greiner, Monroe, NC, Cat #784201) with 8 compounds per plate in grouped replicates of 4 at 10 serially diluted concentrations (1:3). […]
The test compounds were spotted to 384-well assay plates (Greiner, Monroe, NC, Cat #781091) at 200 nL per well using an Echo acoustic dispenser (Labcyte, Sunnyvale, CA). […] 40 μL per well of Celltiter-Glo reagent was added and the plates were incubated at room temperature for 15 minutes before reading the luminescence signal on an En Vision multimode plate reader (Perkin Elmer, Waltham, MA). […]

Row | SMILES | EC50 [1] [nM] | EC50 [2] [nM]
1 | N#Cc1cc(F)cc(CO[C@H](COCCCCCCCCCCCCCCCCCC(F)(F)F)COP(=O)(O)OC[C@@]2(C#N)O[C@@H](c3ccc4c(N)ncnn34)[C@H](O)[C@@H]2O)c1 [Compound 1, ((2R,3S,4R,5S)-5-(4-aminopyrrolo[2,1-f][1,2,4]triazin-7-yl)-2-cyano-3,4-dihydroxytetrahydrofuran-2-yl)methyl ((R)-2-((3-cyano-5-fluorobenzyl)oxy)-3-((18,18,18-trifluorooctadecyl)oxy)propyl) hydrogen phosphate] | 26 | 34
2 | N#Cc1cc(F)cc(CO[C@H](CCCCCCCCCCCCCCCCCCC(F)(F)F)COP(=O)(O)OC[C@@]2(C#N)O[C@@H](c3ccc4c(N)ncnn34)[C@H](O)[C@@H]2O)c1 [Compound 2, ((2R,3S,4R,5S)-5-(4-aminopyrrolo[2,1-f][1,2,4]triazin-7-yl)-2-cyano-3,4-dihydroxytetrahydrofuran-2-yl)methyl ((R)-2-((3-cyano-5-fluorobenzyl)oxy)-21,21,21-trifluorohenicosyl) hydrogen phosphate] | 30 | 87

Source: patent US20240309028A1, “PHOSPHOLIPID COMPOUNDS AND METHODS OF MAKING AND USING THE SAME” (Gilead Sciences, Inc., priority 2023, published 2024)
